Laboratory results taken from ChEMBL document CHEMBL1148803, “Polyfluorinated bis-styrylbenzene beta-amyloid plaque binding ligands” (J Med Chem, 2007).
pKd: −log10 of the molar value.

Test: Binding affinity to beta amyloid protein 1-40 by fluorescence titration
Set-up: species or system Homo sapiens

| Compound | pKd |
| --- | --- |
| O=C(O)c1cc(/C=C/c2c(F)c(F)c(/C=C/c3ccc(O)c(C(=O)O)c3)c(F)c2F)ccc1O | 8.03 |
| FC(F)(F)c1ccc(/C=C/c2ccc(/C=C/c3ccc(C(F)(F)F)cc3)cc2)cc1 | 8.02 |
| Oc1ccc(/C=C/c2ccc(/C=C/c3ccc(O)cc3)cc2)cc1 | 7.96 |
| O=C(O)c1cc(/C=C/c2ccc(/C=C/c3ccc(O)c(C(=O)O)c3)c(F)c2)ccc1O | 5.47 |
| Oc1ccc(/C=C/c2c(F)c(F)c(/C=C/c3ccc(O)cc3)c(F)c2F)cc1 | 10.52 |
| FC(F)(F)Oc1ccc(/C=C/c2ccc(/C=C/c3ccc(OC(F)(F)F)cc3)cc2)cc1 | 8.00 |
| Cc1ccc2c(c1)sc(-c1ccc(N(C)C)cc1)[n+]2C [THIOFLAVIN T] | 6.25 |
| FC(F)(F)c1cccc(/C=C/c2ccc(/C=C/c3cccc(C(F)(F)F)c3)cc2)c1 | 7.59 |
| FC(F)(F)Oc1cccc(/C=C/c2ccc(/C=C/c3cccc(OC(F)(F)F)c3)cc2)c1 | 7.80 |
